Reference: patent publication US12377071B2, “Methods of treating conditions related to the S1P1 receptor” (Arena Pharmaceuticals, Inc., priority 2015, dated 2025)
Entries after “also recorded” stand apart in the source; their conditions may differ. Structures can show the parent of a compound that is named as a salt.

Columns and labels:
[1] = system: lymphocytes; test: Multiple ascending dose study: lymphocyte counts, safety population; format: in vivo, human; details: for Lymphocytes, On Treatment Mean / Lymphocytes, Percent Change from Baseline, Mean / Lymphocytes, Percent Change from Baseline, Median / Lymphocytes, Percent Change from Baseline, Min, Max: day 21
Method: (§1) A randomized, double-blind, placebo-controlled, sequential, ascending, multiple dose study to assess the safety, tolerability, and pharmacokinetics of the L-arginine salt of Compound 1 administered to healthy adult subjects was conducted. This study was designed to evaluate the safety, tolerability, pharmacokinetics, and pharmacodynamics of the L-arginine salt of Compound 1.
(§2) Cohort 1 was dosed with 0.7 mg (by administering two 0.35 mg formulations) for 21 days. Cohort 2 was dosed with 1.35 mg (by administering both a 0.35 mg formulation and a 1 mg formulation) for 21 days. Cohort 3 was dosed with 2.0 mg for 21 days. Cohort 4 was dosed with 0.35 mg for 7 days and then with 2.0 mg for 14 days. Cohort 5 was dosed with 0.5 for 7 days and then with 3.0 mg (by administering both a 1 mg formulation and a 2 mg formulation) for 14 days.

[2] = system: healthy adult subjects; test: Multiple ascending dose study: heart rate, safety population; format: in vivo, human; details: Day 1 to Day 28
Method: as §1, §2
(§3) The following safety assessments were conducted: physical examinations with ophthalmoscopy, clinical laboratory tests (serum chemistry, coagulation, and urinalysis), vital signs, continuous telemetry (12 lead ECG), safety ECGs, pulmonary function testing (PFT), serum protein electrophoresis (SPEP) and serum immunoelectrophoresis (IEP), and adverse event reporting.

[3] = system: healthy adult subjects; test: Multiple ascending dose study: systolic BP, safety population; format: in vivo, human; details: Day 1 to Day 28
Method: as §1, §2, §3

[4] = system: healthy adult subjects; test: Multiple ascending dose study: diastolic BP, safety population; format: in vivo, human; details: Day 1 to Day 28
Method: as §1, §2, §3

[5] = system: healthy adult subjects; test: Multiple ascending dose study: QTc, safety population; format: in vivo, human; details: Day 1 to Day 23
Method: as §1, §2, §3

[6] = system: healthy adult subjects; test: Multiple ascending dose study: safety assessments and adverse events
Method: as §3

[7] = 0.35 mg for 7 days then 2.0 mg for 14 days
[8] = 0.5 mg for 7 days then 3.0 mg for 14 days

O=C(O)C[C@H]1CCc2c1[nH]c1ccc(OCc3ccc(C4CCCC4)c(C(F)(F)F)c3)cc21 [L-arginine salt of Compound 1]
Lymphocytes, On Treatment Mean [1, 7]: 0.62 10^3/μl
Lymphocytes, Percent Change from Baseline, Mean [1, 7]: −67.34%
Lymphocytes, Percent Change from Baseline, Median [1, 7]: −67.54%
Lymphocytes, Percent Change from Baseline, Min, Max [1, 7]: −77.27 to −57.14%
Lymphocytes, On Treatment Mean [1, 8]: 0.62 10^3/μl
Lymphocytes, Percent Change from Baseline, Mean [1, 8]: −66.16%
Lymphocytes, Percent Change from Baseline, Median [1, 8]: −65.02%
Lymphocytes, Percent Change from Baseline, Min, Max [1, 8]: −85.19 to −53.85%
Lymphocytes, On Treatment Mean ([1]; 0.7 mg for 21 days): 1.06 10^3/μl
Lymphocytes, Percent Change from Baseline, Mean ([1]; 0.7 mg for 21 days): −41.03%
Lymphocytes, Percent Change from Baseline, Median ([1]; 0.7 mg for 21 days): −40.37%
Lymphocytes, Percent Change from Baseline, Min, Max ([1]; 0.7 mg for 21 days): −55.56 to −23.08%
Lymphocytes, On Treatment Mean ([1]; 1.35 mg for 21 days): 0.89 10^3/μl
Lymphocytes, Percent Change from Baseline, Mean ([1]; 1.35 mg for 21 days): −53.43%
Lymphocytes, Percent Change from Baseline, Median ([1]; 1.35 mg for 21 days): −51.85%
Lymphocytes, Percent Change from Baseline, Min, Max ([1]; 1.35 mg for 21 days): −68.75 to −30.77%
Lymphocytes, On Treatment Mean ([1]; 2.0 mg for 21 days): 0.62 10^3/μl
Lymphocytes, Percent Change from Baseline, Mean ([1]; 2.0 mg for 21 days): −68.81%
Lymphocytes, Percent Change from Baseline, Median ([1]; 2.0 mg for 21 days): −69.44%
Lymphocytes, Percent Change from Baseline, Min, Max ([1]; 2.0 mg for 21 days): −80.00 to −55.56%
Lymphocyte lowering, dose dependence ([1]; multiple dose, 0.7 to 3.0 mg): dose-dependent effect on lymphocyte lowering with maximal effect at 2 mg dose
Minimum Value for Post-dose Heart Rate, Change from Baseline, Mean [2, 7]: −10.60 BPM
Minimum Value for Post-dose Heart Rate, Change from Baseline, Median [2, 7]: −7.00 BPM
Minimum Value for Post-dose Heart Rate, Change from Baseline, Min, Max [2, 7]: −35.00 to 3.00 BPM
Minimum Value for Post-dose Heart Rate, On Treatment Mean [2, 7]: 52.00 BPM
Minimum Value for Post-dose Heart Rate, Change from Baseline, Mean [2, 8]: −7.30 BPM
Minimum Value for Post-dose Heart Rate, Change from Baseline, Median [2, 8]: −6.50 BPM
Minimum Value for Post-dose Heart Rate, Change from Baseline, Min, Max [2, 8]: −14.00 to −2.00 BPM
Minimum Value for Post-dose Heart Rate, On Treatment Mean [2, 8]: 53.80 BPM
Minimum Value for Post-dose Heart Rate, Change from Baseline, Mean ([2]; 0.7 mg for 21 days): −5.50 BPM
Minimum Value for Post-dose Heart Rate, Change from Baseline, Median ([2]; 0.7 mg for 21 days): −5.00 BPM
Minimum Value for Post-dose Heart Rate, Change from Baseline, Min, Max ([2]; 0.7 mg for 21 days): −12.00 to −1.00 BPM
Minimum Value for Post-dose Heart Rate, On Treatment Mean ([2]; 0.7 mg for 21 days): 54.20 BPM
Minimum Value for Post-dose Heart Rate, Change from Baseline, Mean ([2]; 1.35 mg for 21 days): −6.20 BPM
Minimum Value for Post-dose Heart Rate, Change from Baseline, Median ([2]; 1.35 mg for 21 days): −5.00 BPM
Minimum Value for Post-dose Heart Rate, Change from Baseline, Min, Max ([2]; 1.35 mg for 21 days): −18.00 to 3.00 BPM
Minimum Value for Post-dose Heart Rate, On Treatment Mean ([2]; 1.35 mg for 21 days): 54.40 BPM
Minimum Value for Post-dose Heart Rate, Change from Baseline, Mean ([2]; 2.0 mg for 21 days): −8.30 BPM
Minimum Value for Post-dose Heart Rate, Change from Baseline, Median ([2]; 2.0 mg for 21 days): −7.50 BPM
Minimum Value for Post-dose Heart Rate, Change from Baseline, Min, Max ([2]; 2.0 mg for 21 days): −16.00 to −3.00 BPM
Minimum Value for Post-dose Heart Rate, On Treatment Mean ([2]; 2.0 mg for 21 days): 51.00 BPM
Minimum Value for Post-dose Systolic BP, Change from Baseline, Mean [3, 7]: −13.00 mmHg
Minimum Value for Post-dose Systolic BP, Change from Baseline, Median [3, 7]: −13.00 mmHg
Minimum Value for Post-dose Systolic BP, Change from Baseline, Min, Max [3, 7]: −28.00 to 0.00 mmHg
Minimum Value for Post-dose Systolic BP, On Treatment Mean [3, 7]: 94.30 mmHg
Minimum Value for Post-dose Systolic BP, Change from Baseline, Mean [3, 8]: −7.80 mmHg
Minimum Value for Post-dose Systolic BP, Change from Baseline, Median [3, 8]: −5.00 mmHg
Minimum Value for Post-dose Systolic BP, Change from Baseline, Min, Max [3, 8]: −18.00 to 5.00 mmHg
Minimum Value for Post-dose Systolic BP, On Treatment Mean [3, 8]: 93.20 mmHg
Minimum Value for Post-dose Systolic BP, Change from Baseline, Mean ([3]; 0.7 mg for 21 days): −9.70 mmHg
Minimum Value for Post-dose Systolic BP, Change from Baseline, Median ([3]; 0.7 mg for 21 days): −9.50 mmHg
Minimum Value for Post-dose Systolic BP, Change from Baseline, Min, Max ([3]; 0.7 mg for 21 days): −16.00 to −1.00 mmHg
Minimum Value for Post-dose Systolic BP, On Treatment Mean ([3]; 0.7 mg for 21 days): 96.10 mmHg
Minimum Value for Post-dose Systolic BP, Change from Baseline, Mean ([3]; 1.35 mg for 21 days): −8.90 mmHg
Minimum Value for Post-dose Systolic BP, Change from Baseline, Median ([3]; 1.35 mg for 21 days): −8.00 mmHg
Minimum Value for Post-dose Systolic BP, Change from Baseline, Min, Max ([3]; 1.35 mg for 21 days): −22.00 to 3.00 mmHg
Minimum Value for Post-dose Systolic BP, On Treatment Mean ([3]; 1.35 mg for 21 days): 100.10 mmHg
Minimum Value for Post-dose Systolic BP, Change from Baseline, Mean ([3]; 2.0 mg for 21 days): −9.80 mmHg
Minimum Value for Post-dose Systolic BP, Change from Baseline, Median ([3]; 2.0 mg for 21 days): −9.00 mmHg
Minimum Value for Post-dose Systolic BP, Change from Baseline, Min, Max ([3]; 2.0 mg for 21 days): −18.00 to −4.00 mmHg
Minimum Value for Post-dose Systolic BP, On Treatment Mean ([3]; 2.0 mg for 21 days): 90.80 mmHg
Minimum Value for Post-dose Diastolic BP, Change from Baseline, Mean [4, 7]: −7.90 mmHg
Minimum Value for Post-dose Diastolic BP, Change from Baseline, Median [4, 7]: −6.00 mmHg
Minimum Value for Post-dose Diastolic BP, Change from Baseline, Min, Max [4, 7]: −19.00 to −1.00 mmHg
Minimum Value for Post-dose Diastolic BP, On Treatment Mean [4, 7]: 50.80 mmHg
Minimum Value for Post-dose Diastolic BP, Change from Baseline, Mean [4, 8]: −6.30 mmHg
Minimum Value for Post-dose Diastolic BP, Change from Baseline, Median [4, 8]: −7.00 mmHg
Minimum Value for Post-dose Diastolic BP, Change from Baseline, Min, Max [4, 8]: −13.00 to 3.00 mmHg
Minimum Value for Post-dose Diastolic BP, On Treatment Mean [4, 8]: 50.20 mmHg
Minimum Value for Post-dose Diastolic BP, Change from Baseline, Mean ([4]; 0.7 mg for 21 days): −6.10 mmHg
Minimum Value for Post-dose Diastolic BP, Change from Baseline, Median ([4]; 0.7 mg for 21 days): −6.00 mmHg
Minimum Value for Post-dose Diastolic BP, Change from Baseline, Min, Max ([4]; 0.7 mg for 21 days): −16.00 to 2.00 mmHg
Minimum Value for Post-dose Diastolic BP, On Treatment Mean ([4]; 0.7 mg for 21 days): 56.00 mmHg
Minimum Value for Post-dose Diastolic BP, Change from Baseline, Mean ([4]; 1.35 mg for 21 days): −5.20 mmHg
Minimum Value for Post-dose Diastolic BP, Change from Baseline, Median ([4]; 1.35 mg for 21 days): −7.50 mmHg
Minimum Value for Post-dose Diastolic BP, Change from Baseline, Min, Max ([4]; 1.35 mg for 21 days): −11.00 to 6.00 mmHg
Minimum Value for Post-dose Diastolic BP, On Treatment Mean ([4]; 1.35 mg for 21 days): 53.70 mmHg
Minimum Value for Post-dose Diastolic BP, Change from Baseline, Mean ([4]; 2.0 mg for 21 days): −11.20 mmHg
Minimum Value for Post-dose Diastolic BP, Change from Baseline, Median ([4]; 2.0 mg for 21 days): −9.00 mmHg
Minimum Value for Post-dose Diastolic BP, Change from Baseline, Min, Max ([4]; 2.0 mg for 21 days): −21.00 to −4.00 mmHg
Minimum Value for Post-dose Diastolic BP, On Treatment Mean ([4]; 2.0 mg for 21 days): 45.30 mmHg
Maximum Value for Post-dose QTc, Change from Baseline, Mean [5, 7]: −0.10 MS
Maximum Value for Post-dose QTc, Change from Baseline, Median [5, 7]: 0.50 MS
Maximum Value for Post-dose QTc, Change from Baseline, Min, Max [5, 7]: −19.00 to 17.00 MS
Maximum Value for Post-dose QTc, On Treatment Mean [5, 7]: 411.10 MS
Maximum Value for Post-dose QTc, Change from Baseline, Mean [5, 8]: 5.60 MS
Maximum Value for Post-dose QTc, Change from Baseline, Median [5, 8]: 5.00 MS
Maximum Value for Post-dose QTc, Change from Baseline, Min, Max [5, 8]: −5.00 to 15.00 MS
Maximum Value for Post-dose QTc, On Treatment Mean [5, 8]: 425.10 MS
Maximum Value for Post-dose QTc, Change from Baseline, Mean ([5]; 0.7 mg for 21 days): 3.60 MS
Maximum Value for Post-dose QTc, Change from Baseline, Median ([5]; 0.7 mg for 21 days): 3.50 MS
Maximum Value for Post-dose QTc, Change from Baseline, Min, Max ([5]; 0.7 mg for 21 days): −8.00 to 16.00 MS
Maximum Value for Post-dose QTc, On Treatment Mean ([5]; 0.7 mg for 21 days): 418.40 MS
Maximum Value for Post-dose QTc, Change from Baseline, Mean ([5]; 1.35 mg for 21 days): 8.20 MS
Maximum Value for Post-dose QTc, Change from Baseline, Median ([5]; 1.35 mg for 21 days): 6.00 MS
Maximum Value for Post-dose QTc, Change from Baseline, Min, Max ([5]; 1.35 mg for 21 days): −5.00 to 25.00 MS
Maximum Value for Post-dose QTc, On Treatment Mean ([5]; 1.35 mg for 21 days): 423.60 MS
Maximum Value for Post-dose QTc, Change from Baseline, Mean ([5]; 2.0 mg for 21 days): 4.00 MS
Maximum Value for Post-dose QTc, Change from Baseline, Median ([5]; 2.0 mg for 21 days): 4.50 MS
Maximum Value for Post-dose QTc, Change from Baseline, Min, Max ([5]; 2.0 mg for 21 days): −8.00 to 13.00 MS
Maximum Value for Post-dose QTc, On Treatment Mean ([5]; 2.0 mg for 21 days): 421.20 MS
Subjects with mildly abnormal reproducible (NCS) pulmonary function test findings (FEV1 below 80%, FVC) post-dose ([6]; 1.35 mg dose): One
Subjects with mildly abnormal non-clinically significant post-treatment liver function tests (elevated ALT & AST <2× ULN) ([6]; 2mg group): 1 subject
Subjects with new 1st degree atrioventricular block ([6]; 2mg group): 1 subject
Subjects with new 1st degree atrioventricular block ([6]; 0.5, 3 mg group): 1 subject
Subjects with mildly abnormal non-clinically significant post-treatment liver function tests (elevated ALT & AST <2× ULN) ([6]; 0.5 escalating to 3 mg group): 1 subject
Discontinuation due to an adverse event ([6]; multiple dose): No subjects were discontinued due to an adverse event
Most common adverse events ([6]; multiple dose): contact dermatitis and leukopenia, followed by constipation, diarrhea, nausea, and abdominal pain
Ophthalmoscopy findings ([6]; multiple dose): No clinically significant change from baseline
Severity of adverse events ([6]; multiple dose): majority of adverse events were mild
Vital signs, ECGs, PFTs, ophthalmoscopy, clinical laboratory tests ([6]; multiple dose): no other clinically significant safety issues
SAEs or deaths ([6]; multiple dose, all dose levels): No SAEs or deaths
Second degree heart block ([6]; multiple dose, all dose levels): No second degree heart block
Tolerability ([6]; multiple dose, all dose levels (0.7 to 3.0 mg, 21 days)): tolerated at all dose levels; also recorded: well tolerated at all doses tested
